ChEMBL document CHEMBL4417631, “Oral peptide inhibitors of interleukin-23 receptor and their use to treat inflammatory bowel diseases” (2017)
*1 amine or outer side, *2 acyl side, *3 side chain or, on linkers, in order; H or OH if unused. Where a SMILES comes first, the peptide text is derived from it. Bridges are numbered along the chain shown (N, C = ends). [ ]: non-standard residue; d: D form. Abu(4-yl) = O=C([C@H](CC[*:3])N[*:1])[*:2]; 2Nal = N[C@@H](Cc1ccc2ccccc2c1)C(=O)O; AEF = NCCOc1ccc(C[C@H](N)C(=O)O)cc1; Pen = CC(C)(S)[C@H](N)C(=O)O; αMeK = C[C@](N)(CCCCN)C(=O)O

Columns and labels:
Interleukin-23 receptor [1] = molecular target: T1, Interleukin-23 receptor (Homo sapiens, UniProt Q5VWK5); experiment: Inhibition of interleukin-23 binding to human interleukin-23 receptor incubated for 2 hrs by competitive binding ELISA
T1 sequence (Q5VWK5 whole entry): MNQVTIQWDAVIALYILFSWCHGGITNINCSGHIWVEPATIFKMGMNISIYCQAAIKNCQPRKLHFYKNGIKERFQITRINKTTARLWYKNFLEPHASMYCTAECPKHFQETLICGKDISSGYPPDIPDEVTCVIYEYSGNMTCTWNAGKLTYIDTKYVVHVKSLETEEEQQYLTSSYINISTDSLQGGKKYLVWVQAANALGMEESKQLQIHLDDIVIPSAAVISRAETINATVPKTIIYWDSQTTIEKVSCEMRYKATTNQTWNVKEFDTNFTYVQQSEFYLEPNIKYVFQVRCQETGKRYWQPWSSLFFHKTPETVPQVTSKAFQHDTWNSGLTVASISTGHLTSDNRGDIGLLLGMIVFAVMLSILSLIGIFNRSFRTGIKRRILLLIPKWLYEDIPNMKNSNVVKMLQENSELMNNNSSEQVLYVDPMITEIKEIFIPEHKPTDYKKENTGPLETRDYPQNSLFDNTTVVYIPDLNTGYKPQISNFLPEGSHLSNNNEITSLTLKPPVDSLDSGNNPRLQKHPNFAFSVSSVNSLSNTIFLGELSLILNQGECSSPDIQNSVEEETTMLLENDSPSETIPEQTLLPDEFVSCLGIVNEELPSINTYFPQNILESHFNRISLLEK

Interleukin-23 receptor [2] = molecular target: T1, Interleukin-23 receptor; experiment: Inhibition of interleukin-23 receptor in human DB cells assessed as reduction in IL-23-stimulated STAT3 phosphorylation incubated for 30 mins by HTRF assay; format: cell-based
[3] = Inhibition of interleukin-23 binding to rat interleukin-23 receptor incubated for 2 hrs by competitive binding ELISA
[4] = Half life in simulated intestinal fluid at 20 uM by LC-MS/MS analysis; format: ADME

Question: Which IC50 (Interleukin-23 receptor [1]) does the source give for CC(=O)N[C@H]1CCSC[C@@H](C(=O)N[C@@H](Cc2ccc(O)cc2)C(=O)N[C@@H](Cc2c[nH]c3ccccc23)C(=O)N[C@@H](CCCNC(=N)N)C(=O)N[C@@H](CCC(=O)O)C(=O)N[C@@H](CC(N)=O)C(=O)NCC(=O)NCCOCC(=O)N[C@H](CCCCN)C(N)=O)NC(=O)[C@H](CCC(N)=O)NC(=O)[C@H](Cc2c[nH]c3ccccc23)NC(=O)[C@H]([C@@H](C)O)NC(=O)[C@H](CCC(N)=O)NC1=O here?
Answer: 100 to 1000 nM

Question: What about the IC50 (Interleukin-23 receptor [2]) of the same molecule?
Answer: 25 to 100 nM

Question: What about the IC50 [3] of the same molecule?
Answer: 100 to 1000 nM

Question: And the half-life at 20 µM [4]?
Answer: < 1 h

Question: Which IC50 (Interleukin-23 receptor [1]) does the source give for CC(=O)N[C@H](C(=O)N[C@@H](CCC(N)=O)C(=O)N[C@H](C(=O)N[C@@H](Cc1c[nH]c2ccccc12)C(=O)N[C@@H](CCC(N)=O)C(=O)N[C@H](C(=O)N[C@@H](Cc1ccc2ccccc2c1)C(=O)N[C@@H](Cc1ccc2ccccc2c1)C(=O)N[C@@](C)(CCCCN)C(=O)N[C@@H](CCC(=O)O)C(=O)N[C@@H](CC(N)=O)C(=O)NCC(N)=O)C(C)(C)S)[C@@H](C)O)C(C)(C)S (Ac-[Pen]QTWQ[Pen][2Nal][2Nal][αMeK]ENG-NH2) here?
Answer: 100 to 1000 nM

Question: What about the IC50 (Interleukin-23 receptor [2]) of the same molecule?
Answer: 10 to 25 nM

Question: What about the IC50 [3] of the same molecule?
Answer: 100 to 1000 nM

Question: What about the half-life at 20 µM [4] of the same molecule?
Answer: 3 to 6 h

Question: Which results are given for CC(=O)N[C@H](C(=O)N[C@@H](CCC(N)=O)C(=O)N[C@H](C(=O)N[C@@H](Cc1c[nH]c2ccccc12)C(=O)N[C@@H](CCC(N)=O)C(=O)N[C@H](C(=O)N[C@@H](Cc1ccc(O)cc1)C(=O)N[C@@H](Cc1c[nH]c2ccccc12)C(=O)N[C@@](C)(CCCN)C(=O)N[C@@H](CCC(=O)O)C(=O)N[C@@H](CC(N)=O)C(=O)NCC(N)=O)C(C)(C)S)[C@@H](C)O)C(C)(C)S?
Answer: IC50 (Interleukin-23 receptor [1]): 100 to 1000 nM; IC50 (Interleukin-23 receptor [2]): 25 to 100 nM; IC50 [3]: 100 to 1000 nM; half-life at 20 µM [4]: 3 to 6 h

Question: Which IC50 (Interleukin-23 receptor [1]) does the source give for CC(=O)NCCCC[C@H](NC(=O)[C@H](CCC(C)C)NC(=O)[C@H](Cc1ccc2ccccc2c1)NC(=O)[C@H](Cc1ccc(OCCN)cc1)NC(=O)[C@@H]1CSCC[C@H](NC(C)=O)C(=O)N[C@@H](CCC(N)=O)C(=O)N[C@@H]([C@@H](C)O)C(=O)N[C@@H](Cc2c[nH]c3ccccc23)C(=O)N[C@@H](CCC(N)=O)C(=O)N1)C(=O)N[C@@H](CC(N)=O)C(=O)NCCC(N)=O here?
Answer: < 10 nM

Question: What about the IC50 (Interleukin-23 receptor [2]) of the same molecule?
Answer: < 10 nM

Question: What about the IC50 [3] of the same molecule?
Answer: < 10 nM

Question: And the half-life at 20 µM [4]?
Answer: < 1 h

Question: With CC(=O)NCCCC[C@H](NC(=O)[C@](C)(CCCN)NC(=O)[C@H](Cc1c[nH]c2ccccc12)NC(=O)[C@H](Cc1ccc(O)cc1)NC(=O)[C@@H]1CSCC[C@H](NC(C)=O)C(=O)N[C@@H](CCC(N)=O)C(=O)N[C@@H]([C@@H](C)O)C(=O)N[C@@H](Cc2c[nH]c3ccccc23)C(=O)N[C@@H](CCC(N)=O)C(=O)N1)C(=O)N[C@@H](CC(N)=O)C(=O)NCC(N)=O as the molecule, how does the IC50 (Interleukin-23 receptor [1]) read?
Answer: 25 to 100 nM

Question: What about the IC50 (Interleukin-23 receptor [2]) of the same molecule?
Answer: 10 to 25 nM

Question: What about the IC50 [3] of the same molecule?
Answer: 25 to 100 nM

Question: And the half-life at 20 µM [4]?
Answer: 3 to 6 h

Question: With CC(=O)N[C@H](C(=O)N[C@@H](CCC(N)=O)C(=O)N[C@H](C(=O)N[C@@H](Cc1c[nH]c2ccccc12)C(=O)N[C@@H](CCC(N)=O)C(=O)N[C@H](C(=O)N[C@@H](Cc1ccc(O)cc1)C(=O)N[C@@H](Cc1ccc2ccccc2c1)C(=O)N[C@@](C)(CCCCN)C(=O)N[C@@H](CCC(=O)O)C(=O)N[C@@H](CC(N)=O)C(=O)NCC(N)=O)C(C)(C)S)[C@@H](C)O)C(C)(C)S as the molecule, how does the IC50 (Interleukin-23 receptor [1]) read?
Answer: 25 to 100 nM

Question: What about the IC50 (Interleukin-23 receptor [2]) of the same molecule?
Answer: < 10 nM

Question: What about the IC50 [3] of the same molecule?
Answer: 100 to 1000 nM

Question: And the half-life at 20 µM [4]?
Answer: 3 to 6 h

Question: For CC(=O)NCCCC[C@](C)(NC(=O)[C@H](Cc1ccc2ccccc2c1)NC(=O)[C@H](Cc1ccc(OCCNC(C)=O)cc1)NC(=O)[C@@H]1CSCC[C@H](NC(C)=O)C(=O)N[C@@H](CCC(N)=O)C(=O)N[C@@H]([C@@H](C)O)C(=O)N[C@@H](Cc2c[nH]c3ccccc23)C(=O)N[C@@H](CCC(N)=O)C(=O)N1)C(=O)N[C@@H](CCC(=O)O)C(=O)N[C@@H](CC(N)=O)C(=O)N[C@@H](CCC(N)=O)C(N)=O (Ac-[Abu(4-yl)]QTWQC[AEF](Ac)[2Nal][αMeK](Ac)ENQ-NH2; thioether 1-6), which IC50 (Interleukin-23 receptor [1]) is on record?
Answer: < 10 nM

Question: What about the IC50 (Interleukin-23 receptor [2]) of the same molecule?
Answer: < 10 nM

Question: What about the IC50 [3] of the same molecule?
Answer: < 10 nM

Question: Which results are given for COc1ccc(C[C@H](NC(=O)[C@@H](NC(=O)[C@H](CCC(N)=O)NC(=O)[C@H](Cc2c[nH]c3ccccc23)NC(=O)[C@@H](NC(=O)[C@H](CCC(N)=O)NC(=O)[C@@H](NC(C)=O)C(C)(C)S)[C@@H](C)O)C(C)(C)S)C(=O)N[C@@H](Cc2cccc3ccccc23)C(=O)N[C@@](C)(CCCCN)C(=O)N[C@@H](CCCCNC(C)=O)C(=O)N[C@@H](CC(N)=O)C(=O)NCC(N)=O)cc1?
Answer: IC50 (Interleukin-23 receptor [1]): 25 to 100 nM; IC50 (Interleukin-23 receptor [2]): 25 to 100 nM; IC50 [3]: 100 to 1000 nM; half-life at 20 µM [4]: > 6 h
